Values quoted from earlier work in patent publication US6500409B1, “Synergistic antiplaque/antigingivitis oral composition” (Colgate Palmolive Company, priority 2000, dated 2002).

How the values were obtained:
[1] = system: S. mutans; settings: in vitro
[2] = system: plaque adherence to teeth; settings: in vitro

SMILES: C=CCc1ccc(O)c(-c2ccc(O)c(CC=C)c2)c1 [honokiol]
- Bactericidal activity in MIC test, in words [1]: bactericidal
- Inhibition of plaque adherence to teeth, in words [2]: not found to be inhibitory

SMILES: C=CCc1ccc(O)c(-c2cc(CC=C)ccc2O)c1 [magnolol]
- Bactericidal activity in MIC test, in words [1]: bactericidal
- Inhibition of plaque adherence to teeth, in words [2]: not found to be inhibitory
